The test system of experiment [1] is FN^+ matrimeres secreted from MSCs. Briefly: Effects of pharmacological modulators on FN+ matrimere secretion from MSCs. The class given is cell-based, mouse. The settings on record: 24 hours in culture with drug vs DMSO control. The protocol:
FIGS. 6A-6C show the effects of pharmacological modulators on FN^+ matrimere secretion. (FIG. 6A) Overview of the potential biogenesis pathway for FN^+ matrimeres, known regulators, and their pharmacological modulators. (FIG. 6B) Total number of nanostructures per MSC after 24 hours in culture with drugs or DMSO control. (FIG. 6C) Percent of FN^+ particles in MSC-secreted nanostructures. (FIG. 6D) Total number of FN^+ particles per cell. *p<0.05. n=3 experiments. p-values from one-way ANOVA followed by Tukey's post-test. All data are shown as mean±s.d. BMS-P5 (CAS No. 1550371-22-6); Bafilomycin-A1 (BafA1, CAS No. 88899-55-2); curcumin analog C1 (CA-C1, CAS No. 39777-61-2); ML-SA5 (CAS No. 2418670-70-7).
For excess DNA to be released from the nucleus, arginine in histone undergoes modification from positive to neutral charge via citrullination, which is mediated by peptidylarginine deiminase (PAD) (FIG. 6A). […] Most cells (>90%) remained viable after drug treatment. Thus, autophagy and lysosome are potential mediators of FN^+ matrimere biogenesis.

Experiment [2] concerns human umbilical vein endothelial cell (HUVEC) monolayer. Briefly: Transendothelial electrical resistance (TEER) assay of endothelial monolayer after LPS treatment. The class given is cell-based. The settings on record: cilengitide 200 nM. On the procedure: (FIG. 3A) TEER kinetics of the human umbilical vein endothelial cell (HUVEC) monolayer showing the rescue of LPS (1 μM)—compromised TEER by the CD63-depleted fraction of MSC-secreted nanostructures. (FIG. 3B) Changes in TEER from 6.5 hours to 24 hours after washing out LPS followed by treatment. ****p<0.0001. n=3 experiments. p-values were derived from one-way ANOVA followed by Dunnett's T3 post-test. All data are shown as mean±s.d.
FIG. 8A-8B show the effects of reconstituted FN-DNA matrimeres on the recovery of TEER after 6 hours LPS (1 μM) treatment in vitro. (FIG. 8A) TEER kinetics. (FIG. 8B) Percentage of TEER recovery. n=3 experiments.
The effect of depleting different mouse MSC-secreted nanostructure subpopulations on their ability to reverse hyperpermeability of the endothelial cell monolayer after LPS treatment in vitro was assessed by a transendothelial electrical resistance (TEER) assay. TEER was decreased with LPS over 6 hours, while TEER was only partially rescued after washing out LPS in 24 hours. […] Competitive inhibition of RGD-binding integrins by cilengitide (cyclic RGD, 200 nM) impaired the ability of CD63-depleted fraction to restore TEER (FIG. 3B). […]
It was subsequently determined whether in vitro reconstituted FN-DNA particles could restore permeability of the endothelial cell monolayer after LPS treatment. […]

On to `COc1cc(C(=O)N2C[C@H](N)CC[C@@H]2C)cc2nc(-c3cc4cccnc4n3CC3CC3)n(C)c12` [BMS-P5], for which the “FN^+ matrimeres secreted from MSCs” value in experiment [1] is “decreased”. As to `CN(C)S(=O)(=O)c1ccc(S(=O)(=O)Nc2cccc(Cl)c2N2CCCCC2)cc1` [ML-SA5, N′-[3-Chloro-2-(1-piperidinyl)phenyl]-N,N-dimethyl-1,4-benzenedisulfonamide], in experiment [1], the “FN^+ particle number per cell” value is “significantly increased”. With `CO/C1=C\C(C)=C\[C@@H](C)[C@@H](O)[C@@H](C)C/C(C)=C/C=C/[C@H](OC)[C@@H]([C@@H](C)[C@@H](O)[C@H](C)[C@@]2(O)C[C@@H](O)[C@H](C)[C@@H](C(C)C)O2)OC1=O` [bafilomycin-A1], the “FN^+ matrimeres secreted from MSCs” value in experiment [1] was “decreased”. In the case of `CC(C)[C@H]1C(=O)N[C@@H](CCCN=C(N)N)C(=O)NCC(=O)N[C@@H](CC(=O)O)C(=O)N[C@H](Cc2ccccc2)C(=O)N1C` [cilengitide], the “effect on ability of reconstituted FN-DNA particles to restore TEER” value in experiment [2] is listed as “partially impaired”. Besides, the “effect on ability of CD63-depleted fraction to restore TEER” value in experiment [2] (competitive inhibition of RGD-binding integrins) is reported as “impaired”. For the compound `COc1ccccc1/C=C/C(=O)/C=C/c1ccccc1OC` [curcumin analog C1, (1E,4E)-1,5-bis(2-methoxyphenyl)-1,4-pentadien-3-one], the “FN^+ particle number per cell” value in experiment [1] is reported as “significantly increased”.

The values are drawn from patent publication US20260027066A1, “NANOSCALE MATRIMERES” (THE BOARD OF TRUSTEES OF THE UNIVERSITY OF ILLINOIS, priority 2022, published 2026).
